In one test the target is T1, RET(V804M) mutant (Homo sapiens, UniProt P07949, V804M).
T1 construct: purchased Reaction Biology Corporation (contract assay; enzyme is the CRO's)
The test can be described thus: Biochemical IC50 of RET(V804M) mutant (33P-ATP filter binding, Reaction Biology). On the procedure:
(§1) For detailed test methods, the following references were referred to: T. Anastassiadis, S. W. Deacon, K. Devarajan, H. Ma, J. R. Peterson. […] Nat. Biotech.
(§2) The compounds of the present invention were dissolved in dimethyl sulfoxide (DMSO) to prepare 10 mM stock solutions, and ten different doses by 3-fold serial dilutions from 10 mM were prepared. The ATP concentration used in this determination was 1 μM.
(§3) Base reaction buffer: 20 mM 4-(2-hydroxyethyl)-1-piperazineethanesulfonic acid buffer (Hepes, pH 7.5), 10 mM magnesium chloride, 1 mM ethylene glycol-bis(3-aminoethylether)-N,N,N′,N′-tetraacetic acid (EGTA), 0.02% Brij™-35 (purchased from ThermoFisher Scientific), 0.02 mg/mL bovine serum albumin (BSA), 0.1 mM sodium orthovanadate (Na3VO4), 2 mM dithiothreitol (DTT), 1% dimethyl sulfoxide (DMSO).
(§4) a) adding the corresponding substrate to a freshly prepared base reaction buffer;
(§5) b) adding necessary cofactors;
(§6) c) adding kinase and shake gently;
(§7) d) adding the compounds in DMSO using Acoustic technology (Echo550; nanoliter range) and incubating at room temperature for 20 minutes;
(§8) e) adding 33P-ATP (specific activity 10 μCi/μL) to initiate the reaction;
(§9) f) incubating the kinase reaction at room temperature for 2 hours;
(§10) g) spotting the resultant of reaction on P81 ion exchange paper (purchased from Whatman);
(§11) h) detecting kinase activity by filter binding assay.
(§12) IC50 values were generated using Prism (GraphPad software).

For another test, the target named is T2, wild-type RET kinase (Homo sapiens, UniProt P07949).
T2 construct: purchased Reaction Biology Corporation (contract assay; enzyme is the CRO's)
T2 sequence (P07949 29-1114): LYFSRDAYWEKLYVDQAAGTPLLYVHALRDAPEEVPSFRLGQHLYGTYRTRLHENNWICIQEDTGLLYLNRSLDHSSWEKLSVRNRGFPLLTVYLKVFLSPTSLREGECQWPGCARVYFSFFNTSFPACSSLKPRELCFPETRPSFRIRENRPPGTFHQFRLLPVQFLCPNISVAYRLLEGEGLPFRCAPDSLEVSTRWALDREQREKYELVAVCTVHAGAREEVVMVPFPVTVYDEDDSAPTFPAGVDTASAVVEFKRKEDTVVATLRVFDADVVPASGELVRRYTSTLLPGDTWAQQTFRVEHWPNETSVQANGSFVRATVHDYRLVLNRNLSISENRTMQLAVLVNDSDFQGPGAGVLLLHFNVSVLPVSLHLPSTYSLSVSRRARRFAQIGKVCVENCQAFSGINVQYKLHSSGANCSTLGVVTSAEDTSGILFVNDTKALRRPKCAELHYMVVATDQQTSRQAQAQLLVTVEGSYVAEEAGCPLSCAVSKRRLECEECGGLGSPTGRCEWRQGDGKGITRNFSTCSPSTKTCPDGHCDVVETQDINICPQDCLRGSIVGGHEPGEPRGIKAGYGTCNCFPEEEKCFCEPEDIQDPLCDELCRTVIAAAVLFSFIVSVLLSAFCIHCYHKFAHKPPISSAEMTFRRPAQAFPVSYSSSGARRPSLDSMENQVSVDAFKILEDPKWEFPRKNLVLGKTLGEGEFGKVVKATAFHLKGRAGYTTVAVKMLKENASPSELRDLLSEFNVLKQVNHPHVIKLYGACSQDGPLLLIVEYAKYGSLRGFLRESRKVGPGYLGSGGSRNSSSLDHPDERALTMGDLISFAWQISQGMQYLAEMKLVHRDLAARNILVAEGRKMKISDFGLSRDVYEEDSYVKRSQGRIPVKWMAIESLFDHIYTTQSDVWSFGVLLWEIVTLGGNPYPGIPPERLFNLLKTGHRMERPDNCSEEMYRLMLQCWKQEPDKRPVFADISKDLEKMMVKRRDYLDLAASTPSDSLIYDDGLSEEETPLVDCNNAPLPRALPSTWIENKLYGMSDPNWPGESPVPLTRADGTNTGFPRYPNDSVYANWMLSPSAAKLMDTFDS
The test can be described thus: Biochemical IC50 of wild-type RET kinase (33P-ATP filter binding, Reaction Biology). On the procedure: as §1, §2, §3, §4, §5, §6, §7, §8, §9, §10, §11, §12

A further test addresses T3, RET-CCDC6 (Homo sapiens, UniProt P07949).
T3 construct: CCDC6 (fusion partner, UniProt Q16204); purchased Reaction Biology Corporation (contract assay; enzyme is the CRO's); the other entry of the earlier key: CCDC6 (Q16204, Coiled-coil domain-containing protein 6)
T3 sequence (P07949 with tags, fused parts or gaps): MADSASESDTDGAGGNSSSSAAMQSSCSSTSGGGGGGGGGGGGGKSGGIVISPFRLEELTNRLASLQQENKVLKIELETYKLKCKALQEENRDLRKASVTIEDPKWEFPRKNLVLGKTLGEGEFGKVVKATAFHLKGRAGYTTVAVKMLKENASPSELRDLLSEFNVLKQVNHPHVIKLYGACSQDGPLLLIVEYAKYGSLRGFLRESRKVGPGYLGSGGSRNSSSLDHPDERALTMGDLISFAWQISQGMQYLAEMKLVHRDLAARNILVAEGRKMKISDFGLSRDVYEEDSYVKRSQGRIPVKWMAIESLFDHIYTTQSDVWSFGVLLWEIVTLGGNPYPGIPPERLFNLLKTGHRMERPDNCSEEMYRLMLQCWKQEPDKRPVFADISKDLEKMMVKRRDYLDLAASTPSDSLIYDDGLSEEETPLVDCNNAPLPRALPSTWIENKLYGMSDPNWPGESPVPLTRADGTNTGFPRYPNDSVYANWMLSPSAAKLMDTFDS
The test can be described thus: Biochemical IC50 of RET-CCDC6 fusion (33P-ATP filter binding, Reaction Biology). On the procedure:
as §1, §2, §3, §4, §5, §6, §7, §8, §9, §10, §11, §12

For test [1], the system named is Phospho-ERK in LC-2/ad lung cancer cells. The test can be described thus: Phospho-ERK ELISA in LC-2/ad tumor cells. Type of test: cell-based. The note with it: Homo sapiens, 1 h, read-out: Cell IC50 Phospho-ERK. On the procedure:
(§13) The compounds of the present invention were dissolved in dimethyl sulfoxide (DMSO) to prepare 10 mM stock solutions, and ten different doses by 3-fold serial dilutions from 10 mM were prepared. An ELISA assay format was used in the test.
(§14) PathScan® Phospho-Ret (panTyr) and p44/42 MAPK (Thr202/Tyr204) (ERK) Sandwich ELISA kits were purchased from Cell Signaling Technology. The LC-2/ad lung cancer cell line was purchased from Sigma-Aldrich. […] The medium was supplemented with 10% fetal bovine serum (FBS), 100 μg/mL penicillin and 100 μg/mL streptomycin, and the cultures were maintained at 37° C. in a humidified atmosphere of 5% CO2 and 95% air.
(§15) a) 1.5×10^4 LC-2/ad cells were seeded in the wells of a 96-well tissue culture plate overnight;
(§16) b) the cells were treated with DMSO or the test compound in DMSO (the initial concentration was 1 μM, and ten doses by 3-fold serial dilutions) for one hour;
(§17) The plate was shaken for 1 minute, then placed on a rocking platform at 4° C. for 30 minutes;
(§18) d) 80 μL/well of lysate was added to the appropriate wells of each ELISA plate and the plate was incubated overnight at 4° C. on a rocking platform;
(§19) e) the contents of the plate were discarded into a container and the wells were washed for four times with 200 μL/well of 1×ELISA wash buffer;
(§20) f) 100 μL of reconstituted Phospho-Ret(panTyr) or Phospho-ERK(Thr202/Tyr204; p44/42MAPK) detection antibody was added to the appropriate wells and the plate was incubated at 37° C. for 1 hour;
(§21) g) the washing procedure was repeated and 100 μL of reconstituted HRP-linked secondary antibody was added to each well of two plates and the plates were incubated at 37° C. for 30 minutes;
(§22) h) the washing procedure was repeated, 100 μL of TMB substrate was added to each well, and the plates were incubated at 37° C. for 45 minutes;
(§23) i) 100 μL of STOP solution was added to each well and the plate was gently shaken for a few seconds.

Test [2] concerns Phospho-RET in LC-2/ad lung cancer cells. The test can be described thus: Phospho-RET ELISA in LC-2/ad tumor cells. Type of test: cell-based. Particulars: Homo sapiens, 1 h, read-out: Cell IC50 Phospho-RET. Here is the method: as §13, §14, §15, §16, §17, §18, §19, §20, §21, §22, §23
(In general: ELISA stands for enzyme-linked immunosorbent assay.)

The mark [3] stands for this setting: RET(V804M) mutant, ATP 1 μM, 33P-ATP filter binding, read-out: Biochemical IC50 RET (V804M).
The mark [4] stands for this setting: wild-type RET kinase, ATP 1 μM, 33P-ATP filter binding, read-out: Biochemical IC50 RET.
Setting [5] is: RET-CCDC6 fusion, ATP 1 μM, 33P-ATP filter binding, read-out: Biochemical IC50 RET-CCDC6.

14 molecules from patent publication US20220380366A1, “HETEROCYCLIC SULFOXIMINE COMPOUND AND INTERMEDIATE THEREOF, PREPARATION METHOD THEREFOR, AND APPLICATION THEREOF” (priority 2019, published 2022) can be followed below.

Structures are written as SMILES. Like-named read-outs stand apart in the source and are kept apart here.

T1 sequence (P07949 29-1114 V804M): as the sequence (P07949 29-1114) above, with V776M counted along it

As to `CC(C)(O)COc1cc(-c2ccc(N3CCS(=N)(=O)CC3)nc2)c2c(C#N)cnn2c1` [Ex. 2, 6-(2-hydroxy-2-methylpropoxy)-4-(6-(1-imino-1-oxothiomorpholinyl)pyridin-3-yl)pyrazolo[1,5-a]pyridine-3-carbonitrile], the IC50 was 21.2 nM on RET(V804M) mutant (setting [3]), 4.23 nM at wild-type RET kinase (setting [4]) and 2.81 nM on RET-CCDC6 (setting [5]).
For `COc1ccc(N=S2(=O)CCN(c3ccc(-c4cc(OCC(C)(C)O)cn5ncc(C#N)c45)cn3)CC2)cn1` [Ex. 3, 6-(2-hydroxy-2-methylpropoxy)-4-(6-(1-((6-methoxypyridin-3-yl)imino)-1-oxothiomorpholinyl)pyridin-3-yl)pyrazolo[1,5-a]pyridine-3-carbonitrile], in that order: 3.78 nM, 1.66 nM and 0.993 nM.
With `CC(C)CN=S1(=O)CCN(c2ccc(-c3cc(OCC(C)(C)O)cn4ncc(C#N)c34)cn2)CC1` [Ex. 4, 6-(2-hydroxy-2-methylpropoxy)-4-(6-(1-(isobutylimino)-1-oxothiomorpholinyl)pyridin-3-yl)pyrazolo[1,5-a]pyridine-3-carbonitrile], the IC50 on RET(V804M) mutant (setting [3]) turned out to be 55.7 nM; at wild-type RET kinase (setting [4]), 6.74 nM; on RET-CCDC6 (setting [5]) it was 4.59 nM.
On the same counts, the results for `COc1ccc(CN=S2(=O)CCN(c3ccc(-c4cc(OCC(C)(C)O)cn5ncc(C#N)c45)cn3)CC2)cn1` [Ex. 5, 6-(2-hydroxy-2-methylpropoxy)-4-(6-(1-(((6-methoxypyridin-3-yl)methyl)imino)-1-oxothiomorpholinyl)pyridin-3-yl)pyrazolo[1,5-a]pyridine-3-carbonitrile] are 17.9 nM, 3.62 nM and 2.09 nM.
For `CC(C)(O)COc1cc(-c2ccc(N3CCS(=O)(=NC4CCNCC4)CC3)nc2)c2c(C#N)cnn2c1` [Ex. 7, 6-(2-hydroxy-2-methylpropoxy)-4-(6-(1-oxo-1-(piperidin-4-ylimino)thiomorpholinyl)pyridin-3-yl)pyrazolo[1,5-a]pyridine-3-carbonitrile], in that order: 165 nM, 18.1 nM and 12.6 nM.
For `CC(C)(O)COc1cc(-c2ccc(N3CCC(N=S(C)(C)=O)CC3)nc2)c2c(C#N)cnn2c1` [Ex. 8, 4-(6-(4-((dimethyloxo-λ^4-sulfinyl)amino)piperidin-1-yl)pyridin-3-yl)-6-(2-hydroxy-2-methylpropoxy)pyrazolo[1,5-a]pyridine-3-carbonitrile], in that order: 63.6 nM, 9.45 nM and 5.89 nM.
Consider `CC(C)(O)COc1cc(-c2ccc(N3CCC(N=[S@@](C)(=O)c4ccccc4)CC3)nc2)c2c(C#N)cnn2c1` [Ex. 9, 4-(6-(4-(((S)—S-methyl-S-phenyl-oxo-λ^4-sulfinyl)amino)piperidin-1-yl)pyridin-3-yl)-6-(2-hydroxy-2-methylpropoxy)pyrazolo[1,5-a]pyridine-3-carbonitrile], for which the IC50 was 138 nM at RET(V804M) mutant (setting [3]), 14.2 nM on wild-type RET kinase (setting [4]) and 8.14 nM on RET-CCDC6 (setting [5]).
On the same counts, the results for `CC(C)(O)COc1cc(-c2ccc(N3CCC(N=[S@](C)(=O)c4ccccc4)CC3)nc2)c2c(C#N)cnn2c1` [Ex. 10, 4-(6-(4-(((R)—S-methyl-S-phenyl-oxo-λ^4-sulfinyl)amino)piperidin-1-yl)pyridin-3-yl)-6-(2-hydroxy-2-methylpropoxy)pyrazolo[1,5-a]pyridine-3-carbonitrile] are 36 nM, 6.18 nM and 4.59 nM.
As to `Cn1cc(-c2cc(-c3ccc(N4CCS(=N)(=O)CC4)nc3)c3c(C#N)cnn3c2)cn1` [Ex. 12, 4-(6-(1-imino-1-oxothiomorpholinyl)pyridin-3-yl)-6-(1-methyl-1H-pyrazole-4-yl)pyrazolo[1,5-a]pyridine-3-carbonitrile], the IC50 on RET(V804M) mutant (setting [3]) was 5.55 nM; in test [1] it was 246 nM; at wild-type RET kinase (setting [4]), 0.849 nM; in test [2] (LC-2-ad), 11.5 nM; at RET-CCDC6 (setting [5]) it was 0.523 nM.
`Cn1cc(-c2cc(-c3ccc(N4CCC(N=[S@@](C)(=O)c5ccccc5)CC4)nc3)c3c(C#N)cnn3c2)cn1` [Ex. 17, 4-(6-(4-(((S)—S-methyl-S-phenyl-oxo-λ^4-sulfinyl)amino)piperidin-1-yl)pyridin-3-yl)-6-(1-methyl-1H-pyrazole-4-yl)pyrazolo[1,5-a]pyridine-3-carbonitrile]: the values for the IC50 at RET(V804M) mutant (setting [3]), on wild-type RET kinase (setting [4]) and on RET-CCDC6 (setting [5]) were 10.6 nM, 1.49 nM and 0.776 nM, respectively.
On the same counts, the results for `COc1ccc(N=S2(=O)CCN(c3ccc(-c4nc(-c5cnn(C)c5)cn5ncc(C#N)c45)cn3)CC2)cn1` [Ex. 22, 4-(6-(1-((6-methoxypyridin-3-yl)imino)-1-oxothiomorpholinyl)pyridin-3-yl)-6-(1-methyl-1H-pyrazole-4-yl)pyrazolo[1,5-a]pyrazine-3-carbonitrile] are 3.24 nM, 0.673 nM and 0.41 nM.
For the molecule `Cn1cc(-c2cn3ncc(C#N)c3c(-c3ccc(N4CCC(N=S(C)(C)=O)CC4)nc3)n2)cn1` [Ex. 23, 4-(6-(4-((dimethyloxo-λ^4-sulfinyl)amino)piperidin-1-yl)pyridin-3-yl)-6-(1-methyl-1H-pyrazole-4-yl)pyrazolo[1,5-a]pyrazine-3-carbonitrile], the values for the 50% inhibitory concentration (IC50) on RET(V804M) mutant, on wild-type RET kinase and at RET-CCDC6 were 25 nM, 4.09 nM and 2.16 nM, respectively.
For the molecule `Cn1cc(-c2cn3ncc(C#N)c3c(-c3ccc(N4CCC(N=[S@@](C)(=O)c5ccccc5)CC4)nc3)n2)cn1` [Ex. 24, 4-(6-(4-(((S)—S-methyl-S-phenyl-oxo-λ^4-sulfinyl)amino)piperidin-1-yl)pyridin-3-yl)-6-(1-methyl-1H-pyrazole-4-yl)pyrazolo[1,5-a]pyrazine-3-carbonitrile], the IC50 at RET(V804M) mutant (setting [3]) came to 26.3 nM; at wild-type RET kinase (setting [4]), 4.06 nM; at RET-CCDC6 (setting [5]), 1.93 nM.
`COc1ccc(CN2C3CC2CN(c2ccc(-c4cc(OCC(C)(C)O)cn5ncc(C#N)c45)cn2)C3)cn1` [LOXO292, reference compound]: the IC50 in test [1] is > 1000 nM; in test [2] (LC-2/ad lung cancer cells, one hour treatment, sandwich ELISA) it was 6.08 nM.

By IC50 is commonly meant the concentration needed to halve the response being measured.
